{"source": "PubChem BioAssay AID351", "about": "(ChemBlock, 2006)"}
{"test_system": "sea urchin embryo, cleavage alteration, microscopy", "assay": "sea urchin embryo cleavage alteration, tubulin destabilizer project, whole organism, microscopy (AID 351)", "units": {"threshold concentration": "nM"}}
{"molecule": "Cc1ccc(Nc2nc(-c3c(C)nc4sccn34)cs2)cc1", "threshold concentration": 5}
{"molecule": "CCC1=CCN2CCC34c5cc(C6(C(=O)OC)CC7CN(CCc8c6[nH]c6ccccc86)CC(O)(CC)C7)c(OC)cc5N(C)C3C(O)(C(=O)OC)C(OC(C)=O)C1C24", "note": "(centres undefined)", "threshold concentration": 200}
{"molecule": "c1ccc(-c2nnc(Nc3ccc4c(c3)OCCO4)o2)c(NCc2ccns2)c1", "threshold concentration": 2000}
{"molecule": "Cc1cc(NC(=O)C(=O)c2cn(Cc3ccc(Cl)cc3)c3ccccc23)no1", "threshold concentration": 10}
{"molecule": "c1cncc(CNc2ccccc2-c2nnc(Nc3ccc4c(c3)OCO4)o2)c1", "threshold concentration": 1}
{"molecule": "c1ccc(-c2nnc(Nc3ccc4c(c3)OCO4)o2)c(NCc2ccncc2)c1", "threshold concentration": 0.5}
{"molecule": "Nc1csnc1-c1nnc(Nc2ccc(Cl)cc2)o1", "threshold concentration": 200}
{"molecule": "O=C(Nc1ccc2c(c1)OCO2)C(=O)c1cn(Cc2ccc(Cl)cc2)c2ccccc12", "threshold concentration": 50}
{"molecule": "Cc1nc2sccn2c1-c1csc(Nc2ccc(Cl)cc2)n1", "threshold concentration": 100}
{"molecule": "COc1ccc(NC(=O)C(=O)c2c[nH]c3ccccc23)cc1", "threshold concentration": 1}
{"molecule": "COC(=O)c1[nH]c2ccccc2c1NCc1ccncc1", "threshold concentration": 500}
{"molecule": "COc1ccc(-c2c(-c3ccccc3)noc2N)cc1OC", "threshold concentration": 500}
{"molecule": "O=C(Nc1ccncc1)C(=O)c1cn(Cc2ccc(Cl)cc2)c2ccccc12", "threshold concentration": 10}
{"molecule": "COc1cc2c(c(OC)c1OC)-c1ccc(OC)c(=O)cc1C(NC(C)=O)CC2", "note": "(centres undefined)", "threshold concentration": 50000}
{"molecule": "Cc1nc2sccn2c1-c1csc(Nc2ccccc2Cl)n1", "threshold concentration": 200}
{"molecule": "O=C(Nc1ccc2c(c1)OCCO2)C(=O)c1cn(Cc2ccc(Cl)cc2)c2ccccc12", "threshold concentration": 100}
{"molecule": "COc1ccc(-c2nnc(-c3ccc(OC)c(OC)c3)o2)cc1OC", "threshold concentration": 500}
{"molecule": "COc1ccc(-c2nnc(Nc3ccc4c(c3)OCCO4)o2)c(N)c1", "threshold concentration": 25}
{"molecule": "O=C1c2cccc(O)c2C(=O)c2c(O)cc(CO)cc21", "threshold concentration": 20000}
